Measurements reported in patent publication US9861685B2, “Methods of treating hemoglobinopathies” (Duke University, priority 2012, dated 2018).

Assays:
[1] = test system: SS RBCs co-incubated with polymorphonuclear cells (PMNs); details: previously shown; SS RBCs co-incubated with naive PMNs; cited from earlier work
cAMP = details: SS RBCs
ERK1/2 = details: see WO 2012/149547; cited from earlier work
β-arrestin1/2 [2] = test: Western blot of SS RBC membrane ghosts for β-arrestin1/2 and phosphorylated β-arrestin1
[3] = test system: human SS RBC adhesion to vascular endothelium and vaso-occlusion; test: Intravital microscopy of ex vivo treated human SS RBCs infused into nude mice (window chamber); format: in vivo; details: nude mice n=2; SS RBCs treated ex vivo with 20 nM epinephrine 1 min
Procedure: For some in vivo adhesion studies, packed SS RBCs were fluorescently labeled with the dye Dil (Molecular Probes Inc., Eugene, Oreg.), following the manufacturer's instructions, prior to cell treatment. Dil has been used in previous in vivo studies, and this dye has no effect on RBC suspension viscosity and RBC survival in circulation.^30 Cell morphology was checked by microscopy.
All animal experiments were carried out in accordance with protocols approved by the Duke University Animal Care and Use Committee. Female athymic homozygous nude mice (nu-/nu-) were between 8-12 weeks of age (Charles River Laboratories, Wilmington, Mass.).
General anesthesia was achieved by intra-peritoneal injection of 100 mg/kg of ketamine (Abbott Laboratory, Chicago, Ill.) and 10 mg/kg of xylazine (Bayer, Shawnee Mission, Kans.). […]
Animals were infused with washed SS RBCs (300 μl hematocrit (Hct) 50% in saline) treated with epinephrine at 20 nM for 1 min or 5 μM βARK1 for 1 hour followed by treatment with 20 nM epinephrine for 1 min. […] Microcirculatory events and cell adhesion were simultaneously recorded using a Trinitron Color video monitor (PVM-1353 MD, Sony) and JVC videocassette recorder (BR-S3784, VCR King, Durham, N.C.) connected to a digital video camera C2400 (Hamamatsu Photonics K.K., Japan). […]

β-arrestin1/2 [4] = format: cell-based, human
ERK [5] = details: cited from earlier work
ERK [6] = format: cell-based, human
GRK2 = target: T1, GRK2 (Homo sapiens, UniProt P25098); test: Western blot of SS RBC membrane ghosts for total and phosphorylated GRK2
T1 sequence (P25098 1-689): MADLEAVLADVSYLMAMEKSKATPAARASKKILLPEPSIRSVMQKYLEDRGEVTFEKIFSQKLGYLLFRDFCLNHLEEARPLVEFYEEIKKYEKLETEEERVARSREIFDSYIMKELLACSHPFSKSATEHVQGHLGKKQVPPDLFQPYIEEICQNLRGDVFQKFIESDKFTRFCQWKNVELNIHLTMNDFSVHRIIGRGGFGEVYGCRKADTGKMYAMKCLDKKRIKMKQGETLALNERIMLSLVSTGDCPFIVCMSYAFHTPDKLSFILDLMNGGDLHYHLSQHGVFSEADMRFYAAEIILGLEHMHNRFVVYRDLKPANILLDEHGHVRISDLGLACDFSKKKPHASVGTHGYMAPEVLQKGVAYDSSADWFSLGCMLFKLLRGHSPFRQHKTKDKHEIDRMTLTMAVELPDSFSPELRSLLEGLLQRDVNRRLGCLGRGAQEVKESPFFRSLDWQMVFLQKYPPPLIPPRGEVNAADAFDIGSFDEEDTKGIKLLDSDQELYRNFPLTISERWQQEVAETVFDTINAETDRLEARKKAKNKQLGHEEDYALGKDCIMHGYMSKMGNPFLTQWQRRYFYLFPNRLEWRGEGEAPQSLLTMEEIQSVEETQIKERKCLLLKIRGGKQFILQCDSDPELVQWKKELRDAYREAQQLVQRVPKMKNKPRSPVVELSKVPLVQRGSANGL

SMILES: Cn1cnc2c(F)c(Nc3ccc(Br)cc3Cl)c(C(=O)NOCCO)cc21 [AZD6244]
- ability of SS RBCs to promote PMN adhesion to ECs [1]: decreased

SMILES: COc1cc(F)c(F)c(Nc2ccc(I)cc2F)c1NS(=O)(=O)C1(C[C@H](O)CO)CC1 [RDEA119]
- ability of SS RBCs to promote PMN adhesion to ECs [1]: decreased

SMILES: CC(=O)Nc1cccc(-n2c(=O)n(C3CC3)c(=O)c3c(Nc4ccc(I)cc4F)n(C)c(=O)c(C)c32)c1 [GSK1120212]
- ability of SS RBCs to promote PMN adhesion to ECs [1]: decreased

SMILES: CNC[C@H](O)c1ccc(O)c(O)c1 [Epi, epinephrine]
- SCD patient samples tested in which cAMP levels increased (cAMP): 50%
- ERK phosphorylation/activation in normal RBCs (ERK1/2): fails to become phosphorylated/activated
- β-arrestin1/2 membrane-recruitment (translocation) (β-arrestin1/2 [2]): enhanced
- β-arrestin1 phosphorylation (β-arrestin1/2 [2]): enhanced
- SS RBC adhesion in inflamed venules [3]: marked adhesion
- vaso-occlusion (occlusion of vessels) [3]: induced occlusion
- basal phosphorylation of β-arrestin1 (β-arrestin1/2 [4]): failed to increase
- membrane-recruitment of β-arrestin1/2 (β-arrestin1/2 [4]): failed to increase
- ERK phosphorylation (ERK [5]): enhanced

SMILES: N#CC(=C(/N)Sc1ccccc1N)/C(C#N)=C(\N)Sc1ccccc1N [U0126]
- effect on CT-increased ERK phosphorylation (ERK [6]): inhibited
- ability of SS RBCs to promote PMN adhesion to ECs [1]: decreased
- effect on CT-induced GRK2 membrane-translocation (GRK2): significantly abrogated
- effect on CT-induced GRK2 phosphorylation (GRK2): significantly abrogated
- effect on PTx-induced GRK2 membrane-translocation (GRK2): significantly abrogated
- effect on PTx-induced GRK2 phosphorylation (GRK2): significantly abrogated
- effect on CT-induced β-arrestin1/2 membrane-translocation (β-arrestin1/2 [2]): significantly inhibited
- effect on PTx-induced β-arrestin1/2 recruitment to the membrane (β-arrestin1/2 [2]): failed to have an effect
- effect on levels of β-arrestin1 phosphorylation (CT-treated) (β-arrestin1/2 [2]): decreased
